In the supplement of paper PMC10307832:

Assays:
Experiment in all cases: relative viability (nuclei count vs DMSO), 5 days (fraction); higher = more cells survive
[1] = system: A-427
How it was run: (§1)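 Cells from lung cancer lines were seeded into 1536-well plates and, one day later, dosed by pin tool. Treatments were either a single drug or a fixed dose of an anchor drug with five library-drug doses (not always all listed) in √10 steps. After 5 days, nuclei were stained in a one-step fixation (final 0.05% Triton X-100, 1% formaldehyde, 1 ug/ml Hoechst) and counted on 4× images, and relative viability is the treated-to-vehicle nuclei ratio, as the median of duplicate plates.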

[2] = system: BEN
How it was run: as §1

[3] = system: ChaGo-K-1
How it was run: as §1

[4] = system: EKVX
How it was run: as §1

[5] = system: LK-2
How it was run: as §1

[6] = system: NCI-H1650
How it was run: as §1

[7] = system: NCI-H1755
How it was run: as §1

[8] = system: NCI-H2085
How it was run: as §1

[9] = system: NCI-H2228
How it was run: as §1

[10] = system: NCI-H2347
How it was run: as §1

[11] = system: NCI-H3122
How it was run: as §1

[12] = system: NCI-H322M
How it was run: as §1

[13] = system: NCI-H460
How it was run: as §1

[14] = system: NCI-H520
How it was run: as §1

[15] = system: NCI-H596
How it was run: as §1

[16] = system: NCI-H727
How it was run: as §1

[17] = system: NCI-H838
How it was run: as §1

[18] = system: SW 1573
How it was run: as §1

[19] = system: NCI-H358
How it was run: as §1

[20] = system: NCI-H650
How it was run: as §1

[21] = system: SW 900
How it was run: as §1

SMILES: COCC1(CO)C(=O)C2CCN1CC2 (stereo not given) [PRIMA-1MET] + CC1(C)CCC(c2ccc(Cl)cc2)=C(CN2CCN(c3ccc(C(=O)NS(=O)(=O)c4ccc(N[C@H](CCN5CCOCC5)CSc5ccccc5)c(S(=O)(=O)C(F)(F)F)c4)cc3)CC2)C1 [Navitoclax] (partner 0.5 µM)
- relative viability ([1]; first compound 0.2 µM): 0.884
- relative viability ([1]; first compound 0.6325 µM): 0.821
- relative viability ([1]; first compound 2 µM): 0.961
- relative viability ([1]; first compound 6.325 µM): 0.968
- relative viability ([1]; first compound 20 µM): 1
- relative viability ([2]; first compound 0.2 µM): 0.0631
- relative viability ([2]; first compound 0.6325 µM): 0.0967
- relative viability ([2]; first compound 6.325 µM): 0.0571
- relative viability ([2]; first compound 20 µM): 0.0562
- relative viability ([3]; first compound 0.2 µM): 1.08
- relative viability ([3]; first compound 0.6325 µM): 0.667
- relative viability ([3]; first compound 2 µM): 1.11
- relative viability ([3]; first compound 6.325 µM): 1.11
- relative viability ([3]; first compound 20 µM): 0.404
- relative viability ([4]; first compound 0.2 µM): 1.03
- relative viability ([4]; first compound 0.6325 µM): 0.621
- relative viability ([4]; first compound 2 µM): 0.71
- relative viability ([4]; first compound 6.325 µM): 0.938
- relative viability ([4]; first compound 20 µM): 0.777
- relative viability ([5]; first compound 0.2 µM): 1.06
- relative viability ([5]; first compound 0.6325 µM): 0.771
- relative viability ([5]; first compound 2 µM): 0.617
- relative viability ([5]; first compound 6.325 µM): 0.726
- relative viability ([5]; first compound 20 µM): 0.133
- relative viability ([6]; first compound 0.2 µM): 1.39
- relative viability ([6]; first compound 0.6325 µM): 1.14
- relative viability ([6]; first compound 2 µM): 1.32
- relative viability ([6]; first compound 6.325 µM): 1.33
- relative viability ([6]; first compound 20 µM): 0.888
- relative viability ([7]; first compound 0.2 µM): 1.07
- relative viability ([7]; first compound 0.6325 µM): 1.01
- relative viability ([7]; first compound 2 µM): 0.535
- relative viability ([7]; first compound 6.325 µM): 0.953
- relative viability ([7]; first compound 20 µM): 1.05
- relative viability ([8]; first compound 0.2 µM): 1.2
- relative viability ([8]; first compound 0.6325 µM): 1.04
- relative viability ([8]; first compound 2 µM): 1.09
- relative viability ([8]; first compound 6.325 µM): 0.734
- relative viability ([8]; first compound 20 µM): 0.364
- relative viability ([9]; first compound 0.2 µM): 0.9
- relative viability ([9]; first compound 0.6325 µM): 0.839
- relative viability ([9]; first compound 2 µM): 1.09
- relative viability ([9]; first compound 6.325 µM): 0.62
- relative viability ([9]; first compound 20 µM): 0.0661
- relative viability ([10]; first compound 0.2 µM): 0.887
- relative viability ([10]; first compound 0.6325 µM): 0.708
- relative viability ([10]; first compound 2 µM): 0.519
- relative viability ([10]; first compound 6.325 µM): 0.872
- relative viability ([10]; first compound 20 µM): 0.754
- relative viability ([11]; first compound 0.2 µM): 0.926
- relative viability ([11]; first compound 0.6325 µM): 1.02
- relative viability ([11]; first compound 2 µM): 1.05
- relative viability ([11]; first compound 6.325 µM): 1.01
- relative viability ([11]; first compound 20 µM): 0.976
- relative viability ([12]; first compound 0.2 µM): 1.51
- relative viability ([12]; first compound 6.325 µM): 1.4
- relative viability ([12]; first compound 20 µM): 1.13
- relative viability ([13]; first compound 0.2 µM): 1.44
- relative viability ([13]; first compound 0.6325 µM): 0.971
- relative viability ([13]; first compound 2 µM): 1.06
- relative viability ([13]; first compound 6.325 µM): 0.528
- relative viability ([13]; first compound 20 µM): 0.0099
- relative viability ([14]; first compound 0.2 µM): 1.25
- relative viability ([14]; first compound 0.6325 µM): 1.06
- relative viability ([14]; first compound 6.325 µM): 1.17
- relative viability ([14]; first compound 20 µM): 0.131
- relative viability ([15]; first compound 0.2 µM): 1
- relative viability ([15]; first compound 0.6325 µM): 0.797
- relative viability ([15]; first compound 2 µM): 1.01
- relative viability ([15]; first compound 6.325 µM): 1.08
- relative viability ([15]; first compound 20 µM): 0.982
- relative viability ([16]; first compound 0.2 µM): 0.54
- relative viability ([16]; first compound 0.6325 µM): 0.41
- relative viability ([16]; first compound 2 µM): 0.398
- relative viability ([16]; first compound 6.325 µM): 0.311
- relative viability ([16]; first compound 20 µM): 0.105
- relative viability ([17]; first compound 0.2 µM): 1.38
- relative viability ([17]; first compound 0.6325 µM): 1.12
- relative viability ([17]; first compound 2 µM): 1.23
- relative viability ([17]; first compound 6.325 µM): 1.23
- relative viability ([17]; first compound 20 µM): 1.15
- relative viability ([18]; first compound 0.2 µM): 1.12
- relative viability ([18]; first compound 0.6325 µM): 0.614
- relative viability ([18]; first compound 2 µM): 0.789
- relative viability ([18]; first compound 6.325 µM): 0.0618
- relative viability ([18]; first compound 20 µM): 0.034

SMILES: COCC1(CO)C(=O)C2CCN1CC2 (stereo not given) [PRIMA-1MET] + CC(=O)Nc1cccc(-n2c(=O)n(C3CC3)c(=O)c3c(Nc4ccc(I)cc4F)n(C)c(=O)c(C)c32)c1 [Trametinib] (partner 0.02 µM)
- relative viability ([1]; first compound 0.2 µM): 0.533
- relative viability ([1]; first compound 0.6325 µM): 0.585
- relative viability ([1]; first compound 2 µM): 0.786
- relative viability ([1]; first compound 6.325 µM): 0.692
- relative viability ([1]; first compound 20 µM): 0.785
- relative viability ([2]; first compound 0.2 µM): 1.12
- relative viability ([2]; first compound 0.6325 µM): 0.926
- relative viability ([2]; first compound 6.325 µM): 1.03
- relative viability ([2]; first compound 20 µM): 1.07
- relative viability ([3]; first compound 0.2 µM): 0.996
- relative viability ([3]; first compound 0.6325 µM): 0.735
- relative viability ([3]; first compound 2 µM): 0.849
- relative viability ([3]; first compound 6.325 µM): 0.891
- relative viability ([3]; first compound 20 µM): 0.857
- relative viability ([4]; first compound 0.2 µM): 0.344
- relative viability ([4]; first compound 2 µM): 0.283
- relative viability ([4]; first compound 6.325 µM): 0.233
- relative viability ([4]; first compound 20 µM): 0.243
- relative viability ([5]; first compound 0.2 µM): 0.477
- relative viability ([5]; first compound 0.6325 µM): 0.766
- relative viability ([5]; first compound 2 µM): 0.357
- relative viability ([5]; first compound 6.325 µM): 0.455
- relative viability ([5]; first compound 20 µM): 0.199
- relative viability ([6]; first compound 0.2 µM): 0.545
- relative viability ([6]; first compound 0.6325 µM): 0.48
- relative viability ([6]; first compound 2 µM): 0.636
- relative viability ([6]; first compound 6.325 µM): 0.595
- relative viability ([6]; first compound 20 µM): 0.0646
- relative viability ([7]; first compound 0.2 µM): 0.676
- relative viability ([7]; first compound 0.6325 µM): 0.729
- relative viability ([7]; first compound 2 µM): 0.644
- relative viability ([7]; first compound 6.325 µM): 0.745
- relative viability ([7]; first compound 20 µM): 0.762
- relative viability ([8]; first compound 0.2 µM): 0.618
- relative viability ([8]; first compound 0.6325 µM): 0.61
- relative viability ([8]; first compound 2 µM): 0.508
- relative viability ([8]; first compound 6.325 µM): 0.427
- relative viability ([8]; first compound 20 µM): 0.141
- relative viability ([9]; first compound 0.2 µM): 0.197
- relative viability ([9]; first compound 0.6325 µM): 0.371
- relative viability ([9]; first compound 2 µM): 0.822
- relative viability ([9]; first compound 6.325 µM): 0.335
- relative viability ([9]; first compound 20 µM): 0.0574
- relative viability ([10]; first compound 0.2 µM): 0.286
- relative viability ([10]; first compound 0.6325 µM): 0.303
- relative viability ([10]; first compound 2 µM): 0.255
- relative viability ([10]; first compound 6.325 µM): 0.225
- relative viability ([10]; first compound 20 µM): 0.24
- relative viability ([11]; first compound 0.2 µM): 0.148
- relative viability ([11]; first compound 0.6325 µM): 0.237
- relative viability ([11]; first compound 2 µM): 0.24
- relative viability ([11]; first compound 6.325 µM): 0.17
- relative viability ([11]; first compound 20 µM): 0.191
- relative viability ([12]; first compound 0.2 µM): 0.484
- relative viability ([12]; first compound 0.6325 µM): 0.467
- relative viability ([12]; first compound 6.325 µM): 0.468
- relative viability ([12]; first compound 20 µM): 0.45
- relative viability ([19]; first compound 0.2 µM): 0.137
- relative viability ([19]; first compound 0.6325 µM): 0.134
- relative viability ([19]; first compound 2 µM): 0.108
- relative viability ([19]; first compound 6.325 µM): 0.108
- relative viability ([19]; first compound 20 µM): 0.0807
- relative viability ([13]; first compound 0.2 µM): 0.0362
- relative viability ([13]; first compound 0.6325 µM): 0.0885
- relative viability ([13]; first compound 2 µM): 0.0744
- relative viability ([13]; first compound 6.325 µM): 0.136
- relative viability ([13]; first compound 20 µM): 0.0091
- relative viability ([14]; first compound 0.2 µM): 0.463
- relative viability ([14]; first compound 2 µM): 0.455
- relative viability ([14]; first compound 6.325 µM): 0.76
- relative viability ([14]; first compound 20 µM): 0.0736
- relative viability ([15]; first compound 0.2 µM): 0.888
- relative viability ([15]; first compound 0.6325 µM): 0.718
- relative viability ([15]; first compound 2 µM): 0.66
- relative viability ([15]; first compound 6.325 µM): 0.837
- relative viability ([15]; first compound 20 µM): 0.119
- relative viability ([20]; first compound 0.2 µM): 0.58
- relative viability ([20]; first compound 0.6325 µM): 0.965
- relative viability ([20]; first compound 2 µM): 0.762
- relative viability ([20]; first compound 6.325 µM): 0.833
- relative viability ([20]; first compound 20 µM): 0.0675
- relative viability ([16]; first compound 0.2 µM): 0.423
- relative viability ([16]; first compound 0.6325 µM): 0.322
- relative viability ([16]; first compound 6.325 µM): 0.413
- relative viability ([16]; first compound 20 µM): 0.377
- relative viability ([17]; first compound 0.2 µM): 0.55
- relative viability ([17]; first compound 0.6325 µM): 0.523
- relative viability ([17]; first compound 2 µM): 0.416
- relative viability ([17]; first compound 6.325 µM): 0.553
- relative viability ([17]; first compound 20 µM): 0.557
- relative viability ([18]; first compound 0.2 µM): 0.604
- relative viability ([18]; first compound 0.6325 µM): 0.54
- relative viability ([18]; first compound 2 µM): 0.409
- relative viability ([18]; first compound 6.325 µM): 0.0772
- relative viability ([18]; first compound 20 µM): 0.024
- relative viability ([21]; first compound 0.2 µM): 0.615
- relative viability ([21]; first compound 0.6325 µM): 0.765
- relative viability ([21]; first compound 6.325 µM): 0.676
- relative viability ([21]; first compound 20 µM): 0.131
